ChEMBL document CHEMBL4359907, “Scalable and cost-effective tosylation-mediated synthesis of antifungal and fungal diagnostic 6″-Modified amphiphilic kanamycins” (Eur J Med Chem, 2019)
Converted amounts (≈) assume the structure as drawn.

Assays:
[1] = tested on: Cryptococcus neoformans; assay: Antifungal activity against Cryptococcus neoformans VR-54 incubated for 24 to 36 hrs by two fold dilution method; format: functional
[2] = tested on: Candida albicans; assay: Antifungal activity against azole-resistant Candida albicans 64124 incubated for 24 to 36 hrs by two fold dilution method; format: functional
[3] = tested on: Candida albicans; assay: Antifungal activity against Candida albicans B-311 incubated for 24 to 36 hrs by two fold dilution method; format: functional
[4] = tested on: Candida albicans; assay: Antifungal activity against azole-susceptible Candida albicans MYA2876 incubated for 24 to 36 hrs by two fold dilution method; format: functional
[5] = tested on: Staphylococcus aureus; assay: Antibacterial activity against methicillin-resistant Staphylococcus aureus ATCC 43300 incubated for 18 hrs by two fold dilution method; format: functional; conditions: ATCC 43300, 18 h
[6] = tested on: Diutina rugosa; assay: Antifungal activity against Candida rugosa 95-967 incubated for 24 to 36 hrs by two fold dilution method; format: functional
[7] = tested on: Staphylococcus aureus; assay: Antibacterial activity against Staphylococcus aureus ATCC 25923 incubated for 18 hrs by two fold dilution method; format: functional; conditions: ATCC 25923, 18 h
[8] = tested on: Candida tropicalis; assay: Antifungal activity against Candida tropicalis 95-41 incubated for 24 to 36 hrs by two fold dilution method; format: functional
[9] = tested on: HeLa; assay: Cytotoxicity against human HeLa cells assessed as reduction in cell viability incubated for 24 hrs by MTT assay; format: cell-based
[10] = tested on: Staphylococcus aureus; assay: Antibacterial activity against methicillin-resistant Staphylococcus aureus ATCC 33591 incubated for 18 hrs by two fold dilution method; format: functional; conditions: ATCC 33591, 18 h
[11] = tested on: Escherichia coli; assay: Antibacterial activity against Escherichia coli ATCC 25922 incubated for 18 hrs by two fold dilution method; format: functional; conditions: ATCC 25922, 18 h
[12] = tested on: Fusarium graminearum; assay: Antifungal activity against Fusarium graminearum B4-5A incubated for 24 to 36 hrs by two fold dilution method; format: functional
[13] = tested on: Rhodotorula mucilaginosa; assay: Antifungal activity against Rhodotorula pilimanae ATCC 26423 incubated for 24 to 36 hrs by two fold dilution method; format: functional
[14] = tested on: Cryptococcus neoformans; assay: Antifungal activity against Cryptococcus neoformans H99 incubated for 24 to 36 hrs by two fold dilution method; format: functional
[15] = tested on: Candida parapsilosis; assay: Antifungal activity against azole-resistant Candida parapsilosis Cas08-0490 incubated for 24 to 36 hrs by two fold dilution method; format: functional; conditions: Lodderomyces parapsilosis

Row | Structure (SMILES) | MIC [1] [µg/mL] | MIC [2] [µg/mL] | MIC [3] [µg/mL] | MIC [4] [µg/mL] | MIC [5] [µg/mL] | MIC [6] [µg/mL] | MIC [7] [µg/mL] | MIC [8] [µg/mL] | IC50 [9] [µg/mL] | MIC [10] [µg/mL] | MIC [11] [µg/mL] | MIC [12] [µg/mL] | MIC [13] [µg/mL] | MIC [14] [µg/mL] | MIC [15] [µg/mL]
1 | CCCCCCCCCCCCCCSC[C@H]1O[C@H](O[C@@H]2[C@@H](O)[C@H](O[C@H]3O[C@H](CN)[C@@H](O)[C@H](O)[C@H]3O)[C@@H](N)C[C@H]2N)[C@H](O)[C@@H](N)[C@@H]1O.Cl.Cl.Cl.Cl | 2 | 4 | 8 | 4 | 16 | 8 | 16 | 4 | 52.9 | 16 | 16 | 2 | 2 | 2 | 16
2 | CCCCCCCCCCCCCCNC[C@H]1O[C@H](O[C@@H]2[C@@H](O)[C@H](O[C@H]3O[C@H](CN)[C@@H](O)[C@H](O)[C@H]3O)[C@@H](N)C[C@H]2N)[C@H](O)[C@@H](N)[C@@H]1O.Cl.Cl.Cl.Cl.Cl | 2 | 4 | 8 | 8 | 16 | 4 | 16 | 4 | 60.8 | 16 | 32 | 2 | 2 | 2 | 4
3 | CCCCCCCCNC[C@H]1O[C@H](O[C@@H]2[C@@H](O)[C@H](O[C@H]3O[C@H](CN)[C@@H](O)[C@H](O)[C@H]3O)[C@@H](N)C[C@H]2N)[C@H](O)[C@@H](N)[C@@H]1O.Cl.Cl.Cl.Cl.Cl | 16 | 256 | > 256 | > 256 | 128 | > 256 | 128 | > 256 |  | > 256 | 256 | 32 | 16 | 16 | > 256
4 | CCCCCCCCCCCCCCCCNC[C@H]1O[C@H](O[C@@H]2[C@@H](O)[C@H](O[C@H]3O[C@H](CN)[C@@H](O)[C@H](O)[C@H]3O)[C@@H](N)C[C@H]2N)[C@H](O)[C@@H](N)[C@@H]1O.Cl.Cl.Cl.Cl.Cl | 2 | 4 | 4 | 8 | 32 | 4 | 16 | 4 | 41.6 | 32 | 32 | 2 | 2 | 2 | 4
5 | CCCCCCCCCCCCNC[C@H]1O[C@H](O[C@@H]2[C@@H](O)[C@H](O[C@H]3O[C@H](CN)[C@@H](O)[C@H](O)[C@H]3O)[C@@H](N)C[C@H]2N)[C@H](O)[C@@H](N)[C@@H]1O.Cl.Cl.Cl.Cl.Cl | 2 | 16 | 32 | 64 | 32 | 16 | 64 | 32 | > 100 | 64 | 16 | 2 | 2 | 2 | 32
6 | Cc1ccc(S(=O)(=O)OC[C@H]2O[C@H](O[C@@H]3[C@@H](O)[C@H](O[C@H]4O[C@H](CN)[C@@H](O)[C@H](O)[C@H]4O)[C@@H](N)C[C@H]3N)[C@H](O)[C@@H](N)[C@@H]2O)cc1.Cl.Cl.Cl.Cl | > 256 | > 256 | > 256 | > 256 | > 256 | > 256 | 32 | > 256 |  | > 256 | 16 | 128 | 128 | > 256 | > 256
7 | CCCCCCCCCCCCSC[C@H]1O[C@H](O[C@@H]2[C@@H](O)[C@H](O[C@H]3O[C@H](CN)[C@@H](O)[C@H](O)[C@H]3O)[C@@H](N)C[C@H]2N)[C@H](O)[C@@H](N)[C@@H]1O.Cl.Cl.Cl.Cl | 2 | 16 | 32 | 16 | 16 | 16 | 32 | 32 | > 100 | 32 | 16 | 4 | 2 | 2 | 32
8 | NC[C@H]1O[C@H](O[C@H]2[C@H](O)[C@@H](O[C@H]3O[C@H](CO)[C@@H](O)[C@H](N)[C@H]3O)[C@H](N)C[C@@H]2N)[C@H](O)[C@@H](O)[C@@H]1O [KANAMYCIN] | ≥ 256 | ≥ 256 | ≥ 256 | ≥ 256 | > 256 |  | 4 (≈ 8.26 µM) |  |  | > 256 | 4 (≈ 8.26 µM) | ≥ 256 | ≥ 256 |  | 
9 | CCCCCCCCCCNC[C@H]1O[C@H](O[C@@H]2[C@@H](O)[C@H](O[C@H]3O[C@H](CN)[C@@H](O)[C@H](O)[C@H]3O)[C@@H](N)C[C@H]2N)[C@H](O)[C@@H](N)[C@@H]1O.Cl.Cl.Cl.Cl.Cl | 8 | 128 | 256 | > 256 | 64 | 256 | 128 | > 256 |  | 256 | 64 | 32 | 8 | 8 | 256
10 | CCCCCCSC[C@H]1O[C@H](O[C@@H]2[C@@H](O)[C@H](O[C@H]3O[C@H](CN)[C@@H](O)[C@H](O)[C@H]3O)[C@@H](N)C[C@H]2N)[C@H](O)[C@@H](N)[C@@H]1O.Cl.Cl.Cl.Cl | 64 | > 256 | > 256 | > 256 | > 256 | > 256 | 256 | > 256 |  | > 256 | 128 | 256 | 32 | 128 | > 256
11 | CCCCCCCCCCSC[C@H]1O[C@H](O[C@@H]2[C@@H](O)[C@H](O[C@H]3O[C@H](CN)[C@@H](O)[C@H](O)[C@H]3O)[C@@H](N)C[C@H]2N)[C@H](O)[C@@H](N)[C@@H]1O.Cl.Cl.Cl.Cl | 8 | 64 | 128 | 64 | 32 | 64 | 64 | 128 |  | 64 | 64 | 32 | 4 | 8 | 128
12 | CCCCCCNC[C@H]1O[C@H](O[C@@H]2[C@@H](O)[C@H](O[C@H]3O[C@H](CN)[C@@H](O)[C@H](O)[C@H]3O)[C@@H](N)C[C@H]2N)[C@H](O)[C@@H](N)[C@@H]1O.Cl.Cl.Cl.Cl.Cl | 128 | > 256 | > 256 | > 256 | > 256 | > 256 | 64 | > 256 |  | > 256 | 256 | 64 | 128 | 128 | > 256
13 | CCCCCCCCCCCCCCCCSC[C@H]1O[C@H](O[C@@H]2[C@@H](O)[C@H](O[C@H]3O[C@H](CN)[C@@H](O)[C@H](O)[C@H]3O)[C@@H](N)C[C@H]2N)[C@H](O)[C@@H](N)[C@@H]1O.Cl.Cl.Cl.Cl | 2 | 4 | 4 | 4 | 16 | 4 | 16 | 4 | 37.7 | 32 | 32 | 2 | 2 | 2 | 4
14 | CCCCCCCCS(=O)(=O)OC[C@H]1O[C@H](O[C@@H]2[C@@H](O)[C@H](O[C@H]3O[C@H](CN)[C@@H](O)[C@H](O)[C@H]3O)[C@@H](N)C[C@H]2N)[C@H](O)[C@@H](N)[C@@H]1O | 4 (≈ 6.05 µM) | 16 (≈ 24.2 µM) | 16 (≈ 24.2 µM) | 16 (≈ 24.2 µM) |  | 32 (≈ 48.4 µM) |  | 16 (≈ 24.2 µM) |  |  |  | 8 (≈ 12.1 µM) | 4 (≈ 6.05 µM) | 4 (≈ 6.05 µM) | 16 (≈ 24.2 µM)
15 | CCCCCCCCSC[C@H]1O[C@H](O[C@@H]2[C@@H](O)[C@H](O[C@H]3O[C@H](CN)[C@@H](O)[C@H](O)[C@H]3O)[C@@H](N)C[C@H]2N)[C@H](O)[C@@H](N)[C@@H]1O.Cl.Cl.Cl.Cl | 64 | 128 | > 256 | 256 | 256 | 256 | 128 | > 256 |  | 256 | 128 | 128 | 32 | 128 | > 256
